Laboratory results published in patent US20170157228A1, “Immunogenic Polypeptide Composed of HLA-B7 Restricted Tumor Antigen-Derived Optimized Cryptic Peptides, and Uses Thereof” (VAXON BIOTECH, priority 2014, published 2017).
Entries after “also recorded” stand apart in the source; their conditions may differ.

Assays:
[1] = tested on: HLA-B*0702 transgenic mice; experiment: CTL induction in vivo in HLA-B*0702 transgenic mice, ex vivo IFNγ ELISpot of spleen T cells; conditions: for result versus the inverted dipeptide sequence, in terms of number of responding mice: dipeptide vaccination twice at 2 weeks interval, response against optimized and cognate native peptides; for mice responding to at least one native peptide / recognition of each native peptide in vaccinated mice: after two vaccinations with the polypeptide
Method: Transgenic Mice. The HLA-B7 H-2 class-I knockout mice were previously described (Rohrlich et al, 2003) and kindly provided by F. Lemonnier (Institut Pasteur, Paris, France).
CTL Induction in vivo in HLA-B*0702 Transgenic Mice. HLA-B*0702 transgenic mice were vaccinated subcutaneously at the base of the tail with 200 μg of optimized dipeptides or 400 μg of Vbx-016 in association with the HV core T13L helper (150 μg) helper peptide and emulsified in Incomplete Freund Adjuvant (IFA) or Montanide ISA51VG (Seppic, Castres, France) twice at two weeks interval.
Seven days after the last vaccination, spleens were removed and T cells were isolated by Ficoll centrifugation and tested ex vivo for the recognition of 10 μM of either the native or optimized peptides. Positive control was Concanavalin A and negative control was medium alone. All conditions were tested in quadriplicates. IFNγ producing T cells was quantified by ELISpot using the Diaclone Kit Murine IFNγ ELISpot.
An immune response was considered positive when there was 1) more than 10 spots difference/10^6 cells between the negative control and the tested peptide and 2) a statistically significant difference between these two groups with T Test (p<0.05).
Each dipeptide was used to vaccinate HLA-B*0702 transgenic mice twice at 2 weeks interval and tested for its capacity to induce an immune response against both optimized peptides and their cognate native counterparts. Dipeptides are described in table 2. In each experiment, the best combination is highlighted in grey.
To evaluate if the Vbx-016 (SEQ ID No: 23) determined in the dipeptidic experiments is optimum, HLA-B*0702 transgenic mice were vaccinated subcutaneously at the base of the tail with 400 μg of Vbx-016 and 150 μg of the HBV core T13L helper peptide emulsified in Incomplete Freund Adjuvant (IFA) or Montanide ISA51VG (Seppic, Castres, France) twice at two weeks interval.

[2] = tested on: human PBMC from healthy HLA-B*0702 donors; experiment: Generation of CTL from human PBMC, IFNγ ELISpot with peptide-loaded T2-B7 cells; assay type: cell-based; conditions: for processing of the dipeptide and recognition of optimized and cognate native peptides by induced CTLs: PBMC culture from healthy human donor stimulated with dipeptide; for CTL immune response induced by the polypeptide: PBMC culture from HLA-B*0702 healthy donor
Method: Cells. HLA-B*0702 transfected human T2-B7 cells were previously described (Rohrlich et al, 2003). Cells were grown in penicillin streptomycin FCS 20% supplemented RPMI1640 culture medium.
Generation of CTL from human PBMC. PBMC were collected by leukapheresis from healthy HLA-B*0702 volunteers. Dendritic cells (DC) were produced from adherent cells cultured for seven days with 500 IU/ml GM-CSF and 500 IU/ml IL-4, in complete synthetic medium (AIMV). On day 6, DCs were pulsed with 10 μM of polypeptides overnight. On day 7, CD8+ cells were purified by negative selection with CD8 Dynabeads Untouched Human CD8. CD8+ cells (2×10^5)+CD8− cells (6×10^4) were stimulated with 3×10^4 peptide-pulsed DC in AIMV medium supplemented with 1000 IU/ml IL-6 and 5 IU/ml IL-12, 1 μg/ml anti-CD40 and 500 IU/ml IFNγ in round-bottomed 96-well plates.
From day 7, cultures were restimulated weekly with peptide-loaded DC in the presence of 20 IU/ml IL-2 and 10 ng/ml IL-7, 1 μg/ml anti-CD40 and 500 IU/ml IFNγ.
After the third restimulation, CD8 cells were maintained in AIMV supplemented with 20 IU/ml IL-2 during 7 days. Cultures were starved during one night with AIMV and then were tested in an IFNγ ELISpot assay.
IFNγ ELISpot Assay. For one culture of 96 wells, four pools of 24 wells were collected, CD8 cells were counted and 50 000 CD8 per well were dispatched on the ELISpot plate with 25 000 T2B7 loaded eiher with 10 μM of each native monopeptide or with 10 μM of modified monopeptides composing the polypeptide. Eight replicates of each condition were performed. Positive control was Phytohaemagglutinin A and negative control was T2B7 loaded with an irrelevant peptide not able to bind HLA-B7 molecules.
To evaluate if the junction present in the polypeptide CEA188L9/TERT444A1/MAGE273L9/HER-2/neu246A1 validated in transgenic mice are processed efficiently in humans, human PBMC were stimulated with each dipeptide (CEA188L9/TERT444A1, TERT444A1/MAGE273L9 and MAGE273L9/HER-2/neu246A1) according to the protocol described in the methods. Recognition of the cognate native peptides was evaluated by measuring specific IFNγ producing cells from the CD8+ stimulated by the dipeptide, divided in 4 pools for the test.

In the case of GPRALVETLAPKHSDCLA (7M1HN3M), the “result versus the inverted dipeptide sequence, in terms of number of responding mice” value [1] is reported as “better results than the corresponding inverted sequences; also recorded: better results than the inverted sequence” and the “processing of the dipeptide and recognition of optimized and cognate native peptides by induced CTLs” value (“processing” below) [2] is reported as “efficiently processed in vitro in humans”.

For “SPRLQLSNLAPRRLVQLLGPRALVETLAPKHSDCLA [Vbx-016, polypeptide of four optimized cryptic peptides targeting TERT, HER-2/neu, MAGE and CEA for HLA-B7 patients]”, the “mice responding to at least one native peptide” value [1] was “all mice respond to at least one native peptide”, the “recognition of each native peptide in vaccinated mice” value [1] was “each native peptide was recognized at least once in one vaccinated mouse” and the “mice responding to at least one native peptide” value ([1]; listed as SEQ ID No: 23) was “all mice responded to at least one native peptide”. For the same sequence, the “recognition of each native peptide in vaccinated mice” value ([1]; listed as SEQ ID No: 23) was “all the native peptides were recognized at least once in one vaccinated mouse”, the “Number of responding mice/total number of mice” value ([1]; recognition of CEA188, Helper + adjuvant (IFA or montanide), pooled) was 13/14 and the “Number of responding mice/total number of mice” value ([1]; recognition of CEA188, Vbx016 + helper + IFA, two vaccinations, T-test <0.05) was 8/9. The “Number of responding mice/total number of mice” value ([1]; recognition of CEA188, Vbx016 + helper + Montanide, two vaccinations, T-test <0.05) was 5/5, the “Number of responding mice/total number of mice” value ([1]; recognition of CEA188L9, Helper + adjuvant (IFA or montanide), pooled) was 13/14 and the “Number of responding mice/total number of mice” value ([1]; recognition of CEA188L9, Vbx016 + helper + IFA) was 8/9. The “Number of responding mice/total number of mice” value ([1]; recognition of CEA188L9, Vbx016 + helper + Montanide) was 5/5, the “Number of responding mice/total number of mice” value ([1]; recognition of HER-2Neu246, Helper + adjuvant (IFA or montanide), pooled) was 1/14 and the “Number of responding mice/total number of mice” value ([1]; recognition of HER-2Neu246, Vbx016 + helper + IFA) was 1/9. For the same sequence, the “Number of responding mice/total number of mice” value ([1]; recognition of HER-2Neu246, Vbx016 + helper + Montanide) was 0/5, the “Number of responding mice/total number of mice” value ([1]; recognition of HER-2Neu246A1, Helper + adjuvant (IFA or montanide), pooled) was 2/14 and the “Number of responding mice/total number of mice” value ([1]; recognition of HER-2Neu246A1, Vbx016 + helper + IFA) was 2/9. For the same sequence, the “Number of responding mice/total number of mice” value ([1]; recognition of HER-2Neu246A1, Vbx016 + helper + Montanide) was 0/5, the “Number of responding mice/total number of mice” value ([1]; recognition of MageA273A6, Helper + adjuvant (IFA or montanide), pooled) was 2/14 and the “Number of responding mice/total number of mice” value ([1]; recognition of MageA273A6, Vbx016 + helper + IFA) was 2/9. The “Number of responding mice/total number of mice” value ([1]; recognition of MageA273A6, Vbx016 + helper + Montanide) was 0/5, the “Number of responding mice/total number of mice” value ([1]; recognition of MageA273I6, Helper + adjuvant (IFA or montanide), pooled) was 3/14 and the “Number of responding mice/total number of mice” value ([1]; recognition of MageA273I6, Vbx016 + helper + IFA) was 1/9. For the same sequence, the “Number of responding mice/total number of mice” value ([1]; recognition of MageA273I6, Vbx016 + helper + Montanide) was 2/5, the “Number of responding mice/total number of mice” value ([1]; recognition of MageA273L9, Helper + adjuvant (IFA or montanide), pooled) was 12/14 and the “Number of responding mice/total number of mice” value ([1]; recognition of MageA273L9, Vbx016 + helper + IFA) was 7/9. For the same sequence, the “Number of responding mice/total number of mice” value ([1]; recognition of MageA273L9, Vbx016 + helper + Montanide) was 5/5, the “Number of responding mice/total number of mice” value ([1]; recognition of MageA273V6, Helper + adjuvant (IFA or montanide), pooled) was 2/14 and the “Number of responding mice/total number of mice” value ([1]; recognition of MageA273V6, Vbx016 + helper + IFA) was 1/9. The “Number of responding mice/total number of mice” value ([1]; recognition of MageA273V6, Vbx016 + helper + Montanide) was 1/5, the “Number of responding mice/total number of mice” value ([1]; recognition of Tert444, Helper + adjuvant (IFA or montanide), pooled) was 12/14 and the “Number of responding mice/total number of mice” value ([1]; recognition of Tert444, Vbx016 + helper + IFA) was 8/9. For the same sequence, the “Number of responding mice/total number of mice” value ([1]; recognition of Tert444, Vbx016 + helper + Montanide) was 4/5, the “Number of responding mice/total number of mice” value ([1]; recognition of Tert444A1, Helper + adjuvant (IFA or montanide), pooled) was 14/14 and the “Number of responding mice/total number of mice” value ([1]; recognition of Tert444A1, Vbx016 + helper + IFA) was 9/9. For the same sequence, the “Number of responding mice/total number of mice” value ([1]; recognition of Tert444A1, Vbx016 + helper + Montanide) was 5/5, the “Number of responding mice/total number of mice” value ([1]; recognition of Vbx-016, Helper + adjuvant (IFA or montanide), pooled) was 14/14 and the “Number of responding mice/total number of mice” value ([1]; recognition of Vbx-016, Vbx016 + helper + IFA) was 9/9. For the same sequence, the “Number of responding mice/total number of mice” value ([1]; recognition of Vbx-016, Vbx016 + helper + Montanide) was 4/4, the “Number of responding mice/total number of mice” value ([1]; response to two or more native epitopes, Helper + adjuvant (IFA or montanide), pooled, listed as SEQ ID No: 23) was “a large majority of vaccinated mice responded to two or more cognate native peptides” and the “Number of responding mice/total number of mice” value ([1]; response to two or more native epitopes, Vbx016 + helper + IFA) was 8/9. The “Number of responding mice/total number of mice” value ([1]; response to two or more native epitopes, Vbx016 + helper + Montanide) was 5/5, the “Number of responding mice/total number of mice” value ([1]; response to two or more native epitopes, column Helper + adjuvant (IFA or montanide), pooled) was 13/14 and the “Number of responding mice/total number of mice” value ([1]; response to two or more native epitopes, column Helper + adjuvant (IFA or montanide), pooled, listed as Vbx016) was 13/14. For the same sequence, the “CTL immune response induced by the polypeptide” value [2] was “A polyspecific response was induced and several native peptides were recognized by the induced CTLs” and the “CTL immune response induced by the polypeptide” value ([2]; listed as SEQ ID No: 23) was “polyspecific CTLs immune response; also recorded: several native peptides were recognized; also recorded: induces a specific CD8^+ T cells response against at least one and usually two or more peptides”.

SPRLQLSNLAPKHSDCLA (7C1HN3M) was tested, and the “result versus the inverted dipeptide sequence, in terms of number of responding mice” value [1] was “better results than the corresponding inverted sequences; also recorded: better results than the inverted sequence”.

In the case of APRRLVQLLGPRALVETL (7T5M1M), the “result versus the inverted dipeptide sequence, in terms of number of responding mice” value [1] is reported as “better results than the corresponding inverted sequences; also recorded: better results than the inverted sequence” and the “processing” value [2] is reported as “efficiently processed in vitro in humans”.

APRRLVQLLAPKHSDCLA (7T5HN3M) was tested, and the “result versus the inverted dipeptide sequence, in terms of number of responding mice” value [1] was “better results than the corresponding inverted sequences; also recorded: better results than the inverted sequence”.

SPRLQLSNLAPRRLVQLL (7C1T5M) was tested, and the “result versus the inverted dipeptide sequence, in terms of number of responding mice” value [1] was “better results than the corresponding inverted sequences; also recorded: better results than the inverted sequence” and the “processing” value [2] was “efficiently processed in vitro in humans”.

For SPRLQLSNLGPRALVETL (7C1M1M), the “result versus the inverted dipeptide sequence, in terms of number of responding mice” value [1] was “the same results”.

For GPRALVETLSPRLQLSNL (7M1C1M), the “result versus the inverted dipeptide sequence, in terms of number of responding mice” value [1] was “the same results”.
